In patent US8193191B2, “Urotensin II receptor antagonists” (Janssen Pharmaceutica N.V., priority 2006, dated 2012):

Biological target: T1, rat GPR14 (U-II receptor) (Rattus norvegicus, UniProt P49684)
T1 construct: expressed in transfected cells
T1 sequence (P49684 1-386): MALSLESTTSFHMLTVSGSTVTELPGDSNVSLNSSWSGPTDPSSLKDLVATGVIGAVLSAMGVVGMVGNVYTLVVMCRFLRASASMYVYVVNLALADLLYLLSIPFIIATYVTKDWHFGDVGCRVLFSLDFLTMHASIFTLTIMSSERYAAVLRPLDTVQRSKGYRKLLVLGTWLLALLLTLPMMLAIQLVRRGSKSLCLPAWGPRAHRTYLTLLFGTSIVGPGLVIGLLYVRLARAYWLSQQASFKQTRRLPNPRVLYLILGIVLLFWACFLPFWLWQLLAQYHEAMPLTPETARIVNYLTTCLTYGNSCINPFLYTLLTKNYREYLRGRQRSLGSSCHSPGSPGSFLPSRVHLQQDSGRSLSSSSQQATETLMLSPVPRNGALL
Test: Rat UII Calcium Mobilization FLIPR Assay
Format: cell-based
Details: for inhibition at 10 µM / inhibition at 50 µM: CHO, 5 min, agonist-induced Ca2+ mobilization (FLIPR), CHO cells with rat UII receptor; for inhibition at 10 µM: 10 μM compound, read-out: % I @ 10; for inhibition at 50 µM: 50 μM compound, read-out: % I @ 50; for IC50: Inhibition of Acetyl-cyclic[Cys-Phe-Trp-Lys-(2-Nal)-Cys]-NH2 induced Ca2+ mobilization (FLIPR) in CHO cells transfected with rat UII receptor, read-out: IC50
Source text: To derive these cells, the complete coding sequence of rat U-II (Genbank Accession No. U32673) was amplified by nested PCR from rat heart marathon-Ready cDNA. […] The PCR products were cloned into pcDNA3 (Invitrogen) digested with EcoR I and Xba I. Clones containing rat U-II receptor were verified by complete sequencing of the U-II receptor insert to ensure a lack of PCR-introduced errors. The constructed vector was transfected into CHO cells by using lipofectamine (GIBCO BRL). CHO cells with high expression of rat U-II receptor were selected and established as stable cell lines by using G418. CHO cells were seeded at 25,000 cells per well into 96-well, black-wall, clear-bottom microtiter plates 24 h before assay. Cells in culture media (DMEM/F12 containing 15 mM HEPES, L-glutamine, pyridoxine hydrochloride; 10% fetal bovine serum; 1 mg/mL G418 sulfate; antibiotic-antimycotic; pH 7.4) were loaded with proprietary dye, from the FLIPR Calcium Assay Kit (Molecular Devices), prepared in assay buffer (Hanks Balanced Salts Solution, 20 mM HEPES, 0.1% BSA, 2.5 mM probenecid, pH 7.4), and incubated for 1 h at 37° C. Calcium mobilization determinations were performed at room temperature (23° C.).

Row | Structure (SMILES) | inhibition at 10 µM [%] | inhibition at 50 µM [%] | IC50 [µM]
1 | COc1ccc(CN2C(=O)c3cccc(N4C[C@@H](C)N(Cc5ccccc5)[C@@H](C)C4)c3C2=O)cc1OC [Cpd 42, (3R,5S)-4-(4-benzyl-3,5-dimethyl-piperazin-1-yl)-2-(3,4-dimethoxy-benzyl)-isoindole-1,3-dione] | 55 | 78 | 10
2 | O=C1c2cccc(N3CCN(Cc4ccccc4)CC3)c2C(=O)N1CCc1ccncc1 [Cpd 43, 4-(4-benzyl-piperazin-1-yl)-2-(2-pyridin-4-yl-ethyl)-isoindole-1,3-dione] | 50 | 97 | 10
3 | COc1ccc(CN2C(=O)c3cccc(N4CCN(Cc5cccc(Cl)c5)CC4)c3C2=O)cc1OC [Cpd 44, 4-[4-(3-chloro-benzyl)-piperazin-1-yl]-2-(3,4-dimethoxy-benzyl)-isoindole-1,3-dione] | 42 | 79 | 12
4 | COc1cc(CN2C(=O)c3cccc(N4CC5CCC(C4)N5Cc4ccccc4)c3C2=O)cc(OC)c1 [Cpd 45, 4-(8-benzyl-3,8-diaza-bicyclo[3.2.1]oct-3-yl)-2-(3,5-dimethoxy-benzyl)-isoindole-1,3-dione] | 55 | 40 | 13
5 | COc1ccc(CN2C(=O)c3cccc(N4CCN(Cc5cc(F)cc(F)c5)CC4)c3C2=O)cc1OC [Cpd 46, 4-[4-(3,5-difluoro-benzyl)-piperazin-1-yl]-2-(3,4-dimethoxy-benzyl)-isoindole-1,3-dione] | 48 | 54 | 14
6 | O=C1c2cccc(N3CCN(Cc4ccccc4)CC3)c2C(=O)N1CCCn1ccnc1 [Cpd 47, 4-(4-benzyl-piperazin-1-yl)-2-(3-imidazol-1-yl-propyl)-isoindole-1,3-dione] | 25 | 78 | 15
7 | COc1ccc(CN2C(=O)c3cccc(NCCNCc4ccccc4)c3C2=O)cc1OC [Cpd 48, 4-(2-benzylamino-ethylamino)-2-(3,4-dimethoxy-benzyl)-isoindole-1,3-dione] | 41 | 78 | 16
8 | COc1ccc(C(c2ccccc2)N2C(=O)c3cccc(N4CCN([C@H](C)c5ccccc5)CC4)c3C2=O)cc1OC (stereo partly drawn) [Cpd 49, 2-[(3,4-dimethoxy-phenyl)-phenyl-methyl]-4-[4-(1R)-(1-phenyl-ethyl)-piperazin-1-yl]-isoindole-1,3-dione] | 58 | 61 | 16
9 | COc1ccc(CN2C(=O)c3cccc(C4=CC5CCC(C4)N5Cc4ccccc4)c3C2=O)cc1OC (stereo not drawn) [Cpd 50, 4-(8-benzyl-8-aza-bicyclo[3.2.1]oct-2-en-3-yl)-2-(3,4-dimethoxy-benzyl)-isoindole-1,3-dione] | 42 | 77 | 17
10 | COc1ccc(CN2C(=O)c3cccc(N4C[C@@H](C)N(C(C)c5ccccc5)[C@@H](C)C4)c3C2=O)cc1OC (stereo partly drawn) [Cpd 51, (3R,5S)-2-(3,4-dimethoxy-benzyl)-4-[3,5-dimethyl-4-(1-phenyl-ethyl)-piperazin-1-yl]-isoindole-1,3-dione] | 43 | 65 | 18
11 | COc1cc(CN2C(=O)c3cccc(N4CCN(C(C)C)CC4)c3C2=O)cc(OC)c1OC [Cpd 52, 4-(4-isopropyl-piperazin-1-yl)-2-(3,4,5-trimethoxy-benzyl)-isoindole-1,3-dione] | 17 | 71 | 18
12 | COc1ccc(CN2C(=O)c3cccc(OCCN(C)Cc4ccccc4)c3C2=O)cc1OC [Cpd 53, 4-[2-(benzyl-methyl-amino)-ethoxy]-2-(3,4-dimethoxy-benzyl)-isoindole-1,3-dione] | 22 | 78 | 21
13 | COc1ccc(CN2C(=O)c3cccc(OCCNCc4ccccc4)c3C2=O)cc1OC [Cpd 54, 4-(2-benzylamino-ethoxy)-2-(3,4-dimethoxy-benzyl)-isoindole-1,3-dione] | 15 | 81 | 21
14 | Cc1c(CN2C(=O)c3cccc(N4CCN(Cc5ccccc5)CC4)c3C2=O)cnn1C [Cpd 55, 4-(4-benzyl-piperazin-1-yl)-2-(1,5-dimethyl-1H-pyrazol-4-ylmethyl)-isoindole-1,3-dione] | 12 | 75 | 24
15 | COc1ccc(CN2CCN(c3cccc4c3C(=O)N(Cc3ccc(OC)c(OC)c3)C4=O)CC2)cc1OC [Cpd 56, 2-(3,4-dimethoxy-benzyl)-4-[4-(3,4-dimethoxy-benzyl)-piperazin-1-yl]-isoindole-1,3-dione] | 21 | 68 | 25
16 | COc1ccc(CN2C(=O)c3cccc(N4CCN(Cc5ccc(Cl)cc5)CC4)c3C2=O)cc1OC [Cpd 57, 4-[4-(4-chloro-benzyl)-piperazin-1-yl]-2-(3,4-dimethoxy-benzyl)-isoindole-1,3-dione] | 19 | 58 | 30
17 | COc1cc(CN2C(=O)c3cccc(N4CCN(Cc5ccccc5)CC4)c3C2=O)ccn1 [Cpd 58, 4-(4-benzyl-piperazin-1-yl)-2-(2-methoxy-pyridin-4-ylmethyl)-isoindole-1,3-dione] | 25 | 60 | 32
18 | O=C1c2cccc(N3CC4CCC(C3)N4Cc3ccccc3)c2C(=O)N1Cc1ccccn1 [Cpd 59, 4-(8-benzyl-3,8-diaza-bicyclo[3.2.1]oct-3-yl)-2-pyridin-2-ylmethyl-isoindole-1,3-dione] | 11 | 56 | 34
19 | COc1cc(CN2C(=O)c3cccc(N4CCN(CC(C)C)CC4)c3C2=O)cc(OC)c1OC [Cpd 60, 4-(4-isobutyl-piperazin-1-yl)-2-(3,4,5-trimethoxy-benzyl)-isoindole-1,3-dione] | 8 | 52 | 42
20 | COc1ccc(N2C(=O)c3cccc(N4CC5CCC(C4)N5Cc4ccccc4)c3C2=O)cc1OC [Cpd 61, 4-(8-benzyl-3,8-diaza-bicyclo[3.2.1]oct-3-yl)-2-(3,4-dimethoxy-phenyl)-isoindole-1,3-dione] | 31 | 49 | 48
21 | COc1ccc(CN2C(=O)c3c(C=CS(C)(=O)=O)ccc(N4CCN([C@H](C)c5ccccc5)CC4)c3C2=O)cc1OC [Cpd 62, 2-(3,4-dimethoxy-benzyl)-4-(2-methanesulfonyl-vinyl)-7-[4-(1R)-(1-phenyl-ethyl)-piperazin-1-yl]-isoindole-1,3-dione] | 99 | 102 | 0.72
22 | COc1ccc(C(CCCNS(=O)(=O)c2ccc(Cl)s2)N2C(=O)c3cccc(N4CCN([C@H](C)c5ccccc5)CC4)c3C2=O)cc1OC (stereo partly drawn) [Cpd 71, 5-chloro-thiophene-2-sulfonic acid (4-(3,4-dimethoxy-phenyl)-4-{1,3-dioxo-4-[4-(1R)-(1-phenyl-ethyl)-piperazin-1-yl]-1,3-dihydro-isoindol-2-yl}-butyl)-amide] | 58 | 37 | 1.7
